Like-named read-outs stand apart in the source and are kept apart here.
Tests used:
P38b/MAPK11 = biological target: T1, P38b/MAPK11 (Homo sapiens, UniProt Q15759); assay: Kinase panel assay (radiolabelled); format: biochemical; settings: ATP 10 μM
T1 construct: purchased Reaction Biology Corp

iNOS = assay: Western blot of iNOS in LPS-induced BV-2 cells; format: cell-based, murine
Procedure: Western blot analysis was performed to see the protein expression of the iNOS and COX-2 in the BV2 cells. BV2 cells were seeded in a 6 well plate at the density of 6 × 10^5 cells/well overnight and cells were treated as mentioned earlier in the cell treatment section and this time treatment was performed for 6 h only. After 6 h, cells were harvested and lysed with lysis buffer containing (RIPA, protease inhibitor & phosphatase inhibitor), protein estimation was performed using biorad assay and the 30 µg of total protein was separated by 8% SDS-PAGE gel electrophoresis, transferred to nitrocellulose membranes, and incubated with primary antibodies against tubulin, iNOS, COX-2, and α-tubulin. […] membranes were incubated with horseradish peroxidase-conjugated secondary antibodies, and protein bands were visualized using ECL Western Blotting Detection Reagents (Amersham Pharmacia Biotech). Quantitative analysis of the protein bands was quantified using Image Master 2D Elite software (version 3.1, Amersham Pharmacia Biotech).

AMPK(A2/B2/G2) [1] = biological target: T2, AMPK(A2/B2/G2) (Homo sapiens, UniProt O43741+P54646+Q9UGJ0); assay: Kinase panel assay (radiolabelled); format: biochemical; settings: 30 μM compound, ATP 10 μM; duplicates Data 1/Data 2; read-out: % Enzyme Activity (relative to DMSO controls)
T2 construct: purchased Reaction Biology Corp

AMPK(A2/B2/G2) [2] = biological target: T3, AMPK(A2/B2/G2) (Homo sapiens, UniProt P54646); assay: Kinase panel assay (radiolabelled); format: biochemical; settings: 30 μM compound, ATP 10 μM; duplicates Data 1/Data 2
T3 construct: purchased Reaction Biology Corp

AMPK(A1/B1/G3) [3] = biological target: T4, AMPK(A1/B1/G3) (Homo sapiens, UniProt Q13131); assay: Kinase panel assay (radiolabelled); format: biochemical; settings: 30 μM compound, ATP 10 μM; duplicates Data 1/Data 2
T4 construct: purchased Reaction Biology Corp

AMPK(A1/B1/G3) [4] = biological target: T5, AMPK(A1/B1/G3) (Homo sapiens, UniProt Q13131+Q9UGI9+Q9Y478); assay: Kinase panel assay (radiolabelled); format: biochemical; settings: 30 μM compound, ATP 10 μM; duplicates Data 1/Data 2; read-out: % Enzyme Activity (relative to DMSO controls)
T5 construct: purchased Reaction Biology Corp

PI3K (p110a(E542K)/p85a) = biological target: T6, PI3K (p110a(E542K)/p85a) (Homo sapiens, UniProt P42336, E542K); assay: Kinase panel assay (lipid kinase); format: biochemical; settings: 30 μM compound, ATP 10 μM, duplicates Data 1/Data 2
T6 construct: purchased Reaction Biology Corp

[5] = biological target: T7, PI3K (p110a(H1047R)/p85a) (Homo sapiens, UniProt P42336, H1047R); assay: Kinase panel assay (lipid kinase); format: biochemical; settings: 30 μM compound, ATP 10 μM, duplicates Data 1/Data 2
T7 construct: purchased Reaction Biology Corp

IL-1β = assay: Secreted IL-1β ELISA in LPS-induced BV-2 cells; format: cell-based, murine
Procedure: To evaluate the secreted level of Prostaglandin E2 (PGE2), Tumor necrosis factor (TNF-α), Interleukin (IL-6), Interleukin (IL-1β), BV2 cells were seeded in a 6 well plate at the density of 1.5 × 10^6 cells/well in DMEM and incubated for 24 h. Seeded cells sere pretreated and, activated with LPS for next 24 h. conditioned medium from treated cells were collected and stored at -80 degree for longer period of time. The amount of TNF-α, IL-1β, PGE2,and IL-6 were evaluated using the competitive enzyme immunoassay kit. PGE2 kit were obtained from (Cayman Chemical, Ann Arbor, MI, USA) and TNF-α, IL-1β, and IL-6 were measured using ELISA development kits (R&D Systems, Minneapolis, MN, USA). All the protocol was exactly followed as written in the manual.

PDK4/PDHK4 = biological target: T8, PDK4/PDHK4 (Homo sapiens, UniProt Q16654); assay: Kinase panel assay (radiolabelled); format: biochemical; settings: 30 μM compound, ATP 10 μM, duplicates Data 1/Data 2
T8 construct: purchased Reaction Biology Corp
Procedure: (§1) Every inhibitory activity of tested compounds was measured by radiolabelled method of Reaction Biology Corp). The radiolabelled ATP ([γ-^33P] ATP) replaced a substrate with ^33P-phosphorylated substrate so that the activity of a kinase was measured from the radiolabelled phosphorylated substrate. Kinase panel assay was tested at 30 μM testing compounds with an ATP concentration of 10 μM and a substrate concentration of 10 μM. % Residual activity against GSK3β was measured at 10 uM compounds 1 and 2. […] Curve fits of control compounds were performed where the enzyme activities at the highest concentration of compounds were less than 65%. The concentration of DMSO was controlled and raw data, % kinase activity was calculated relative to DMSO controls.

EIF2AK1 = biological target: T9, EIF2AK1 (Homo sapiens, UniProt Q9BQI3); assay: Kinase panel assay (radiolabelled); format: biochemical; settings: 30 μM compound, ATP 10 μM, duplicates Data 1/Data 2
T9 construct: purchased Reaction Biology Corp
Procedure: as §1

PDK2/PDHK2 = biological target: T10, PDK2/PDHK2 (Homo sapiens, UniProt Q15119); assay: Kinase panel assay (radiolabelled); format: biochemical; settings: 30 μM compound, ATP 10 μM, duplicates Data 1/Data 2
T10 construct: purchased Reaction Biology Corp
Procedure: as §1

TRPM7/CHAK1 = biological target: T11, TRPM7/CHAK1 (Homo sapiens, UniProt Q96QT4); assay: Kinase panel assay (radiolabelled); format: biochemical; settings: 30 μM compound, ATP 10 μM, duplicates Data 1/Data 2
T11 construct: purchased Reaction Biology Corp
Procedure: as §1

PDK1/PDHK1 = biological target: T12, PDK1/PDHK1 (Homo sapiens, UniProt Q15118); assay: Kinase panel assay (radiolabelled); format: biochemical; settings: 30 μM compound, ATP 10 μM, duplicates Data 1/Data 2
T12 construct: purchased Reaction Biology Corp
Procedure: as §1

PDK3/PDHK3 = biological target: T13, PDK3/PDHK3 (Homo sapiens, UniProt Q15120); assay: Kinase panel assay (radiolabelled); format: biochemical; settings: 30 μM compound, ATP 10 μM, duplicates Data 1/Data 2
T13 construct: purchased Reaction Biology Corp
Procedure: as §1

TRKA-TPR = TRKA-TPR (Homo sapiens, UniProt P04629); assay: biochemical; settings: 30 μM compound, ATP 10 μM, duplicates Data 1/Data 2
TRKA = biological target: T14, TRKA (Homo sapiens, UniProt P04629); settings: cited from earlier work
T14 construct: purchased Reaction Biology Corp

ZIPK/DAPK3 = biological target: T15, ZIPK/DAPK3 (Homo sapiens, UniProt O43293); settings: cited from earlier work
T15 construct: purchased Reaction Biology Corp

PKN2/PRK2 = biological target: T16, PKN2/PRK2 (Homo sapiens, UniProt Q16513); settings: cited from earlier work
T16 construct: purchased Reaction Biology Corp

[6] = read-out: % Enzyme Activity (relative to DMSO controls)

T1 sequence (Q15759 whole entry): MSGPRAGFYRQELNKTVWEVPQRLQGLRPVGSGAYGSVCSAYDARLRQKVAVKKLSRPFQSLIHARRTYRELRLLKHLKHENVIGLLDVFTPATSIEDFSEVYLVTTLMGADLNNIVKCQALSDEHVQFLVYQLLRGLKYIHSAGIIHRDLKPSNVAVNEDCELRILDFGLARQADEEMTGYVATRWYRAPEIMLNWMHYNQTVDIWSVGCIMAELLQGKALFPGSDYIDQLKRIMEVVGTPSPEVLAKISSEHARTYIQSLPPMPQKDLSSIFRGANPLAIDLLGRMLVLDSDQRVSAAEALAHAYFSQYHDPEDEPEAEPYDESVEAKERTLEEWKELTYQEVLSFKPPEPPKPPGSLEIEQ
T12 sequence (Q15118 29-436): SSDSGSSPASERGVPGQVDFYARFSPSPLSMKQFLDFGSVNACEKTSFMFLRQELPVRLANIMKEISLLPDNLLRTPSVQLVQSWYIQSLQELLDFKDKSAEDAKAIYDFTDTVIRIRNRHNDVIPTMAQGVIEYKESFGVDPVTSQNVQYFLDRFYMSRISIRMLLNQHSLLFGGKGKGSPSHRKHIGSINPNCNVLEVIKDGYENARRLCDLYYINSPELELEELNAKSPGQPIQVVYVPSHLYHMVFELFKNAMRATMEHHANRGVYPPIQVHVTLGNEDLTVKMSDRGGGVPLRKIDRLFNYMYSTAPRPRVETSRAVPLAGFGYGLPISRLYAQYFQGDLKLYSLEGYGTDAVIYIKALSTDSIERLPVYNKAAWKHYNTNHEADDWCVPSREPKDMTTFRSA
T6 sequence (P42336 whole entry E542K): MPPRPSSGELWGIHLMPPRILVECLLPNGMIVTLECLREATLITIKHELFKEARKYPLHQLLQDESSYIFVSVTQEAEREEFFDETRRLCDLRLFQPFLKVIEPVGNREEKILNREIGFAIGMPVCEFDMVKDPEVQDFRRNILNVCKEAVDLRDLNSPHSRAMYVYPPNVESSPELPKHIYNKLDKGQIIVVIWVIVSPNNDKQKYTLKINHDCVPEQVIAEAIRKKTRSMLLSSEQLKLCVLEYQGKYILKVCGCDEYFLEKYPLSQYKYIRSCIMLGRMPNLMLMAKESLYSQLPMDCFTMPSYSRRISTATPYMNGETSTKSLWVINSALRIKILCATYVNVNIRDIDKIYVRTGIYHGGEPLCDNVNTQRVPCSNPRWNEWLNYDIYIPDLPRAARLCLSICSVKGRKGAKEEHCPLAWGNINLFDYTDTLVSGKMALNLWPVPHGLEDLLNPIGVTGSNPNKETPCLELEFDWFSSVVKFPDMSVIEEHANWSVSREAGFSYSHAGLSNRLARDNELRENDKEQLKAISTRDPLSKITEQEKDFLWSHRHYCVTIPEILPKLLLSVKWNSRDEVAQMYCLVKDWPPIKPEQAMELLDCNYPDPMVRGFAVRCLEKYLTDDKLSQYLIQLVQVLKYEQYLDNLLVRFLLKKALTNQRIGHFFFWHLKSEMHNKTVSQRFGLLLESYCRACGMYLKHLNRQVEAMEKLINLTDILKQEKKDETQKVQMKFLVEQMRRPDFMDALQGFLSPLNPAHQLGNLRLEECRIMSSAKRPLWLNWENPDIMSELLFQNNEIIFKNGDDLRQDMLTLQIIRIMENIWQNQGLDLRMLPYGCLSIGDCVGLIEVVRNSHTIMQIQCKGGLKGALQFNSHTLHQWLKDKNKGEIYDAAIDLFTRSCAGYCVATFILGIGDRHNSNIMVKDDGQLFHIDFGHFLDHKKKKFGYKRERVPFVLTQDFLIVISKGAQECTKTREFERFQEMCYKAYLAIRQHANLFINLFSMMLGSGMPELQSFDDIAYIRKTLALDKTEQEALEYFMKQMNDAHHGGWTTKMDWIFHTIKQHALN
T6 sequence (P27986 whole entry partner): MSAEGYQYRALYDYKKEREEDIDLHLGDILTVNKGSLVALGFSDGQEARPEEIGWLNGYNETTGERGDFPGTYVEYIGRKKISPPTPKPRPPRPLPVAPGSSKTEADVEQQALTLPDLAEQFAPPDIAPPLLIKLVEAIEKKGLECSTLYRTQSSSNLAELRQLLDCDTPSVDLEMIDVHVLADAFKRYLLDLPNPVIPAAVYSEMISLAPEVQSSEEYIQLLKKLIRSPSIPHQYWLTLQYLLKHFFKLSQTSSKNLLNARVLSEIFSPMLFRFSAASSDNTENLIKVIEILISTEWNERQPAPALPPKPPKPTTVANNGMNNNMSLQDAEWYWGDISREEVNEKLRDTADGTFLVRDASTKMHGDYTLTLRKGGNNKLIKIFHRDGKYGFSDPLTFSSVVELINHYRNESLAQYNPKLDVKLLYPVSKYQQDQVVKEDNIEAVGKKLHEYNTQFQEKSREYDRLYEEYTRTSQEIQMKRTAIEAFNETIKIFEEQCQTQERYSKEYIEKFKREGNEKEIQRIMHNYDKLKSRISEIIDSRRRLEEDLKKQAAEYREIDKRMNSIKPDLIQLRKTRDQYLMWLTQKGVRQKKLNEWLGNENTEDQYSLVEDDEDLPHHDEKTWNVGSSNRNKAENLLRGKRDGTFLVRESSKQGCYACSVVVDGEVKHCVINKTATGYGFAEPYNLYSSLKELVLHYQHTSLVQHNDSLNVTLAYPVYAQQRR
T11 sequence (Q96QT4 whole entry): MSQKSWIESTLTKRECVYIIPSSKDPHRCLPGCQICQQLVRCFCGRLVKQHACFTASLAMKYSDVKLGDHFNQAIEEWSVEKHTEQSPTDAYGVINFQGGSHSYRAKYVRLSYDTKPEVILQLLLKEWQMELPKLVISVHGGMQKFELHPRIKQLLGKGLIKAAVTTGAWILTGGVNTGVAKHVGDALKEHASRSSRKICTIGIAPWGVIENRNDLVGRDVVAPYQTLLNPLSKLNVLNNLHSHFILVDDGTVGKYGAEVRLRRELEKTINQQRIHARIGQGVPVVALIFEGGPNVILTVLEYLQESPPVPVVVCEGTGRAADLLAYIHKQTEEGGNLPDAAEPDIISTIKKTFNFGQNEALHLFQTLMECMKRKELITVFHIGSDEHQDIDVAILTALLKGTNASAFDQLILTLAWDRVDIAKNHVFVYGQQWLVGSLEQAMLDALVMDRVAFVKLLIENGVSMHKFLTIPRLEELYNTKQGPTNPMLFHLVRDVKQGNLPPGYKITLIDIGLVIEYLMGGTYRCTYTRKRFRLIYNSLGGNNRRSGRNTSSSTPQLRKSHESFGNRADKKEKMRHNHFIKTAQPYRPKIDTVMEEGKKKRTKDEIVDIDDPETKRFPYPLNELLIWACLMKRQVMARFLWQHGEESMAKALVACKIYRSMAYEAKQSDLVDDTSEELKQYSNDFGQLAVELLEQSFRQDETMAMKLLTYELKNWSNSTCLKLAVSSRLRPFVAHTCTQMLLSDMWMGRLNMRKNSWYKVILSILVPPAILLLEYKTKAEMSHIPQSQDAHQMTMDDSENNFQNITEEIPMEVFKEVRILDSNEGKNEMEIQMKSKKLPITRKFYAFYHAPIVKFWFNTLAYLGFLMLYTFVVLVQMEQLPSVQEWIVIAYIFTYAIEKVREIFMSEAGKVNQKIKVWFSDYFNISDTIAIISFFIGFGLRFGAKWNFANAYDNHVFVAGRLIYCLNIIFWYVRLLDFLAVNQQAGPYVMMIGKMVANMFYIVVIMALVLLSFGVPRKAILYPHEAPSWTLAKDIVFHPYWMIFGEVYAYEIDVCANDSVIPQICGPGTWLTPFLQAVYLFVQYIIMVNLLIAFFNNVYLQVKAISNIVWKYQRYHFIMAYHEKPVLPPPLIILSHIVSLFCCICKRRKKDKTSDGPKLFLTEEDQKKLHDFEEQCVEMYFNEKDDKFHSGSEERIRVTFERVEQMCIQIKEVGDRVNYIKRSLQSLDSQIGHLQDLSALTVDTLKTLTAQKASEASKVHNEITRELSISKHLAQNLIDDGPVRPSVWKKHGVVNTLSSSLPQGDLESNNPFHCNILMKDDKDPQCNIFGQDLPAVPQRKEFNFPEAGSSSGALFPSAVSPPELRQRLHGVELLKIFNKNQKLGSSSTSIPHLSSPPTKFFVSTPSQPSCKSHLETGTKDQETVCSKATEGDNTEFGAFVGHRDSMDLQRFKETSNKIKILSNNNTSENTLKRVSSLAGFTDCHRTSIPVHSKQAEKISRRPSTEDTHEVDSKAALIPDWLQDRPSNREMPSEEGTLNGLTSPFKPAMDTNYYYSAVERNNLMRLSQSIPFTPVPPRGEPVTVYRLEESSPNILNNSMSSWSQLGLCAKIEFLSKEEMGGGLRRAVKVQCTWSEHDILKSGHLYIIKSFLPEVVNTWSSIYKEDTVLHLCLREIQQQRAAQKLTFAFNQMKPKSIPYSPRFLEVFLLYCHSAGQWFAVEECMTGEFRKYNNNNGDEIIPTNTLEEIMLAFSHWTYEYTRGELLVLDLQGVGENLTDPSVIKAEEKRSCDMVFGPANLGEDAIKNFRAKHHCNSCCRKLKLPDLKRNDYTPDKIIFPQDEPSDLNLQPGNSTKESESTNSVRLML
T8 sequence (Q16654 whole entry): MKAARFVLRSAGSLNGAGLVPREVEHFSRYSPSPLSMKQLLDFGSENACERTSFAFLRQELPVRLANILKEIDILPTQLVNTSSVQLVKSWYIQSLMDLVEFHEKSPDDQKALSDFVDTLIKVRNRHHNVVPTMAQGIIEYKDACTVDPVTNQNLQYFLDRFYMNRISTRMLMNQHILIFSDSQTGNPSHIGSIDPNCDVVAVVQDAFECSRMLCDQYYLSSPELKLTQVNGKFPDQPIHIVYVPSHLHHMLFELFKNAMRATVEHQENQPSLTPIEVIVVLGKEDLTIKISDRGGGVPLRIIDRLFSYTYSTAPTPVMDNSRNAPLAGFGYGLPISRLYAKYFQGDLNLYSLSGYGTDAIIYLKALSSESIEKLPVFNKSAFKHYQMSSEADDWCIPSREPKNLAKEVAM
T7 sequence (P42336 whole entry H1047R): as the sequence (P42336 whole entry E542K) above, with K542E, H1047R counted along it
T7 sequence (P27986 whole entry partner): as the sequence (P27986 whole entry partner) above

**Q.** What does the source list for `O=C1C=CC2(C=C1)OCC(Cc1cn(-c3cccc(Cl)c3)nn1)C(=O)N2c1ccccc1` (stereo not shown) [2d, 3-((1-(3-Chlorophenyl)-1H-1,2,3-triazol-4-yl)methyl)-5-phenyl-1-oxa-5-azaspiro[5.5]undeca-7,10-diene-4,9-dione]?
**A.** % Enzyme Activity (relative to DMSO controls) (P38b/MAPK11; 30 μM compound, duplicates Data 1/Data 2): 109.52%; remaining activity at 30 µM (P38b/MAPK11; 30 μM compound, duplicates Data 1/Data 2, read-out: % Enzyme Activity (relative to DMSO controls)): 110%; remaining activity at 30 µM (P38b/MAPK11; 30 μM, average ± SD, read-out: % Residual Activity at 30 μM): 109.9 ± 0.5%; iNOS expression level (iNOS; 0.01 to 1 uM, LPS-induced BV-2 cells): downregulated iNOS and COX-2 more efficiently than compound 2a; potency relative to L-NMMA (iNOS; regulation of iNOS and COX-2, LPS-induced BV-2 cells): 20 fold; remaining activity at 30 µM (AMPK(A2/B2/G2) [1]): 114%; % Enzyme Activity (relative to DMSO controls) (AMPK(A2/B2/G2) [2]): 111.36%; % Enzyme Activity (relative to DMSO controls) (AMPK(A1/B1/G3) [3]): 100.85%; remaining activity at 30 µM (AMPK(A1/B1/G3) [4]): 101%; % Enzyme Activity (relative to DMSO controls) (PI3K (p110a(E542K)/p85a)): 100.20%; remaining activity at 30 µM (PI3K (p110a(E542K)/p85a); [6]): 103%; % Enzyme Activity (relative to DMSO controls) [5]: 131.08%; remaining activity at 30 µM [5, 6]: 132%; IL-1β level (IL-1β): concentration-dependent manner; % Enzyme Activity (relative to DMSO controls) (PDK4/PDHK4): 105.05%; remaining activity at 30 µM (PDK4/PDHK4; [6]): 111%; % Enzyme Activity (relative to DMSO controls) (EIF2AK1): 87.95%; remaining activity at 30 µM (EIF2AK1; [6]): 91.7%; % Enzyme Activity (relative to DMSO controls) (PDK2/PDHK2): 63.30%; remaining activity at 30 µM (PDK2/PDHK2; [6]): 64.3%; % Enzyme Activity (relative to DMSO controls) (TRPM7/CHAK1): 63.76%; remaining activity at 30 µM (TRPM7/CHAK1; [6]): 67.5%; % Enzyme Activity (relative to DMSO controls) (PDK1/PDHK1): 85.01%; remaining activity at 30 µM (PDK1/PDHK1; [6]): 85.6%; % Enzyme Activity (relative to DMSO controls) (PDK3/PDHK3): 82.28%; remaining activity at 30 µM (PDK3/PDHK3; [6]): 85.9%; % Enzyme Activity (relative to DMSO controls) (TRKA-TPR): 101.99%; remaining activity at 30 µM (TRKA-TPR; [6]): 106%

**Q.** What does the source list for `O=C1C=CC2(C=C1)OCC(Cc1cc(C(F)(F)F)cc(C(F)(F)F)c1)C(=O)N2c1ccccc1` (racemic) [1c]?
**A.** % Residual Activity at 30 μM (TRKA): 98.3 ± 0.1%; % Residual Activity at 30 μM (ZIPK/DAPK3): 101.8 ± 0.8%; % Residual Activity at 30 μM (PKN2/PRK2): 63.5 ± 1.8%

Source: paper PMC7719162, “Positioning of an unprecedented spiro[5.5]undeca ring system into kinase inhibitor space” (Scientific Reports, 2020)
